In patent US10232023B2, “Methods for treatment of and prophylaxis against inflammatory disorders” (THE UNIVERSITY OF UTAH RESEARCH FOUNDATION, priority 2013, dated 2019):
Entries after “also recorded” stand apart in the source; their conditions may differ.

Key:
[1] = tested on: LPS-stimulated PMNs; experiment: NET formation by LPS-stimulated adult human PMNs (live cell imaging, histone H3 release); format: cell-based; conditions: healthy adult PMNs; peptide/protein pre-incubation 1 hour (1 nM where stated); LPS 100 ng/mL
Experimental: PMNs from healthy adult donors and from 28 day old preterm infants were pre-incubated for one hour with thawed cord blood plasma from that particular preterm infant or with autologous plasma collected that day from either the preterm infant peripheral blood sample or the blood sample from the healthy adult. NET formation was then assessed in vitro following LPS-stimulation (100 ng/mL) for 2 hours.
Human PMNs isolated from healthy adult donors were stimulated with LPS (100 ng/mL) or phorbal-12-mystirate (PMA; 20 nM), ±nNIF (1 nM) or CRISPP (1 nM), pre-incubation (1 hour). Scrambled control peptide (SCR) generated using the identical amino acid content as CRISPP but linked in a random order was used as a control. NET formation was assessed 2 hours after stimulation.
Briefly, primary PMNs isolated from preterm infants, healthy term infants, and healthy adults (2×10^6 cells/mL) were incubated with control buffer or stimulated with LPS (100 ng/mL), PMA (20 nM), or S. aureus bacteria (MOI 100) for 1 hour at 37° C. in 5% CO2/95% air on glass coverslips coated with poly-L-lysine. For selected experiments, primary PMNs were pre-incubated with autologous plasma, cord blood plasma, nNIF (1 nM), CRISPP (1 nM), or SCR (1 nM) for 1 hour prior to imaging. After pre-incubation and/or stimulation, PMNs were gently washed with PBS and incubated with a mixture of cell permeable (SYTO Green, MOLECULAR PROBES) and impermeable (SYTOX Orange, MOLECULAR PROBES) DNA fluorescent dyes. Confocal microscopy was accomplished using a FV300 1×81 Microscope and FLUOVIEW software (OLYMPUS). Both 20× and 60× objectives were used. Z-series images were obtained at a step size 1 μm over a range of 20 μm for each field. OLYMPUS FLUOVIEW and ADOBE PHOTOSHOP CS2 software were used for image processing.
Supernatant total histone H3 content was determined as previously referenced in McInturff et al., Blood, 2012, 120: 3118-3125. After live cell imaging of control and stimulated primary PMNs (2×10^6/mL; various agonists), the cells were incubated with PBS containing DNase (40 U/mL) for 15 minutes at room temperature to break down and release NETs formed in response to stimulation. The supernatant was gently removed and centrifuged at 420×g for 5 minutes. The cell-free supernatant was then mixed 1:3 with 4× Laemmli buffer prior to western blotting. A polyclonal primary antibody against human histone H3 protein (CELL SIGNALING TECHNOLOGY) and infrared secondary antibodies (LI-COR BIOSCIENCES) were used. Imaging and densitometry were performed on the ODYSSEY™ infrared imaging system (LI-COR BIOSCIENCES).
To determine whether the 29 amino acid peptide identified in Example 5 were the substances circulating in umbilical cord blood responsible for the inhibition of NET formation, cord blood plasma was depleted of nNIF via affinity purification using the carboxy-terminus AAT antibody. nNIF was then eluted from the column and used in experiments to assess the NET-inhibitory activity of unaltered cord blood plasma, nNIF-depleted cord blood plasma, and affinity purified nNIF from cord blood plasma. As a control, recombinant AAT in nNIF-depleted cord blood was also assessed (see FIGS. 5A-5F).
Cord blood plasma depleted of both nNIF and full length AAT was collected as were the peptides captured by affinity purification for use in in vitro assays of NET formation. Full length, enzymatically active AAT (SIGMA) was also resuspended in elution buffer and tested in parallel.

[2] = tested on: Outbred Swiss-Webster mice, E. coli peritonitis; experiment: Murine E. coli peritonitis: peritoneal fluid and membrane analysis; format: in vivo, mouse
Experimental: Outbred Swiss-Webster mice were injected intraperitoneally with 4.5×10^7 colony-forming units (cfu) of E. coli±nNIF, CRISPP, or scrambled control peptide (SCR) (10 mg/kg, IP injection) one hour prior to E. coli infection. At the 3 hour time point after infection, 3 mice were sacrificed and the peritoneal fluid and peritoneal tissue were collected and analyzed for leukocyte accumulation, bacteriology, and in vivo NET formation. […] See Fuchs et al., J Cell Biol, 2007, 176: 231-241. The number of E. coli cfu/mL of peritoneal fluid in CRISPP pretreated mice was also determined compared to SCR mice (see FIG. 17C).
Animals were treated with CRISPP (10 mg/kg), nNIF (10 mg/kg), or SCR (10 mg/kg) by i.p. injection 1 hour prior to infection (E. coli, 4.5×10^7 cfu/mouse, i.p. injection) or stimulation (LPS, 25 mg/kg, i.p. injection (SIGMA)). Control mice were injected with saline alone. The mice were sacrificed in a CO2 chamber 3 hours post-infection/stimulation with the peritoneal contents harvested and analyzed. Briefly, the skin of the abdomen was cut open in the midline after thorough disinfection and without injuring the muscle. The peritoneal cavity was lavaged with sterile saline solution ([…]) and analyzed for in vivo NET formation, bacteriology, and leukocyte accumulation. NETs in the peritoneal fluid were qualitatively and quantitatively analyzed using live cell imaging with confocal microscopy and histone release assays. NETs on the inner surface of the peritoneal membrane were assessed quantitatively using live cell imaging followed by standardized grid analysis of 5 randomly selected high power visual fields per tissue sample (IMAGE-J software, NIH). Peritoneal bacterial colony forming units (cfu) counts were quantified by permeabilizing all recovered leukocytes with 0.1% Triton-X 100 for 10 minutes and performing serial dilutions and bacterial cultures on 5% sheep blood agar plates (HARDY DIAGNOSTICS). After a 24-hour incubation, bacterial counts were determined. Total leukocyte counts in the peritoneal lavage were determined in Neubauer chambers using an optical microscope after dilution in Turk's solution (2% acetic acid). Differential leukocyte analysis was performed using a 60× oil immersion objective to assess morphology of cyto-centrifuged cells stained with May-Grunwald-Giemsa dye.

[3] = tested on: outbred Swiss mice, intraperitoneal injection of E. coli; experiment: Survival after intraperitoneal E. coli; format: in vivo, mouse
Experimental: FIG. 10B is a graph tracking survival of outbred Swiss mice in various treatment arms following intraperitoneal injection of E. coli (4×10^7 bacteria). As in FIG. […] The same dose, delivery route, and schedule were followed for the scrambled peptide control mice. Here, 10 mice were assessed in each group: no treatment, E. coli plus CRISPP, and E. coli plus scrambled peptide.
Survival of outbred Swiss mice was tracked in various treatment arms following intraperitoneal injection of either LPS (20 mg/kg) or E. coli (4×10^7 bacteria), as shown in FIGS. 10A and 10B. […] The same dose, delivery route, and schedule were followed for the scrambled control peptide control mice. Six mice were assessed in both groups: LPS+CRISPP and LPS+scrambled control peptide. […] Ten mice were assessed in each group: no treatment, E. coli+CRISPP, and E. coli+scrambled control peptide. No antibiotics were given. No deaths occurred in the no treatment group. […] Referring to FIG. 11, CRISPP was also evaluated in a murine model of polymicrobial infection caused by cecal ligation and puncture (CL/P). CL/P was also performed without concomitant antibiotic treatment. Ten mice were assessed in each of the CL/P groups. […]
[…] Survival was assessed over 6 days at 6 hour to 12 hour intervals.

[4] = tested on: LPS-stimulated human PMNs; experiment: Reactive oxygen species generation, dihydrorhodamine assay; format: cell-based; conditions: 1 nM, 1 hour pre-incubation; LPS 100 ng/mL
Experimental: Human PMNs isolated from healthy adult whole blood were resuspended to a concentration of 2×10^6 cells/mL in M-199 media and pre-incubated±[…] (1 nM) or SCR (1 nM) peptide for 1 hour under standard conditions. The PMNs were then stimulated with LPS (100 ng/mL) for 1 hour, washed, and resuspended with a dihydrorhodamine (7.25 mM; D-632, MOLECULAR PROBES) and catalase (1000 Units/mL; C-40, SIGMA) mixture and incubated at 37° C. for 10 minutes. After incubation, samples were placed at 4° C. and analyzed for ROS-dependent fluorescence using a BECTON-DICKINSON FACSCAN device equipped with CELLQUEST software.

[5] = 10 mg/kg IP pretreatment, vs SCR control

With “Cancer-Associated SCM-Recognition, Immune Defense Suppression, and Serine Protease Protection Peptide [CRISPP, nNIF-related peptide (nNRP)]” the “NET formation by LPS-stimulated PMNs” value [1] was “blocked NET formation by LPS-stimulated PMNs in a concentration dependent manner; also recorded: significantly inhibited NET formation”, the “Peritoneal PMN accumulation” value ([2]; 10 mg/kg IP one hour prior to E. coli, 3 hours after infection, vs E. coli alone or SCR) was “significant increase” and the “Peritoneal fluid bacterial concentration (E. coli cfu/mL)” value ([2]; 10 mg/kg IP one hour prior to E. coli, 3 hours after infection, vs SCR) was “significant increase”. The “NET formation by histone H3 release assay of the peritoneal fluid” value [2, 5] was “significant quantitative decrease”, the “NET formation in the peritoneal fluid (live cell imaging)” value [2, 5] was “qualitative decrease” and the “Peritoneal membrane-associated NET formation” value ([2]; freshly resected peritoneal membrane, live cell imaging, standardized grid) was “qualitative and quantitative decrease”. For the same substance, the “Survival, post-infection treatment” value ([3]; CRISPP-Post/E. coli vs SCR-Post/E. coli, peptide 4 hours after infection) was “approached statistical significance”, the Survival ([3]; E. coli 4×10^7 IP, 10 mcg/kg/dose IP, 1 hour prior and 6 hours after, vs E. coli+scrambled peptide, p<0.0001) was “statistically greater” and the “Reactive oxygen species generation” value [4] was “did not significantly inhibit”.
